Four molecules from PubChem BioAssay (NCI) can be followed below.

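Results reflect a 48-hour exposure of cells in 96-well plates to compound at five concentrations. Abbreviation: GI50, concentration required for 50% inhibition of growth. TGI: total growth inhibition.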 A value given as a limit tells only on which side of the number the result lay.

Holding throughout (experiment): inhibition of tumour cell growth, NCI panel, 48 h
Test [1] concerns IGROV1 ovarian.
Test [2] deals with SF-268 CNS.
Test [3] relates to OVCAR-3 ovarian.
Test [4] has as its system UACC-257 melanoma.
Test [5] relates to UO-31 renal.
Test [6] relates to M14 melanoma.
Test [7] deals with PC-3 prostate.
Test [8] relates to K-562 leukemia.
The test system of test [9] is CCRF-CEM leukemia.
In test [10] the test system is SR leukemia.
In test [11] the test system is HCT-15 colon.
The subject of test [12] is OVCAR-4 ovarian.

As to `CCOC(=O)C1=C(c2ccccc2)C12N(Cc1ccccc1)C(=O)C2(c1ccccc1)c1ccccc1` (stereo not drawn), the TGI in [1], in [2], in test [3], in test [4], in test [5] and in test [6] was > 100 µM in each case. Further, the TGI was 75.5 µM in [7]; > 100 µM in test [8]; > 100 µM in [9]; > 100 µM in test [10]; > 100 µM in test [11].

For the molecule `O=C1c2cc3c(cc2CC1Cc1ccc2c(c1)CCC2)CCC3` (stereo not drawn), the TGI in test [1], in [2], in test [12], in [3], in test [4] and in test [5] was > 100 µM throughout. For the same molecule, the TGI in [6] is > 100 µM; in test [7] it was > 100 µM; in test [8], > 100 µM; in test [9], > 100 µM; in test [10], 95.1 µM; in test [11], > 100 µM.

Consider `COc1cc(-c2nc3cc(Cl)c(Cl)cc3[nH]2)ccc1OCC(=O)N=Nc1c(O)[nH]c2ccc(Cl)cc12`, for which the GI50 was 0.403 µM in test [12]; 0.446 µM in test [3]; > 100 µM in test [5]; 0.284 µM in [8]; 0.28 µM in [9]; 0.252 µM in [10]. In test [11], the GI50 is > 100 µM. Also, the TGI is > 100 µM in test [12]; 1.57 µM in [3]; > 100 µM in test [5]; 5.27 µM in [9]; 1.39 µM in test [10]; > 100 µM in test [11].

Regarding `N#Cc1ccc(C2Oc3ccc(Cl)cc3C=C2[N+](=O)[O-])cc1` (stereo not drawn), the TGI in test [1] turned out to be 3.11 µM; in [2], 4.16 µM; in test [12] it was 3.45 µM; in [3], 3.04 µM; in test [4] it was 6.75 µM; in test [5] it was 2.99 µM. Further, the TGI in test [6] was found to be 2.73 µM; in test [7], 3.37 µM; in test [8] it was 2.04 µM; in test [9], 1.03 µM; in test [10] it was 1.61 µM; in [11], 4.12 µM.
